What all share (settings): stereoisomer not certain
A short description of series [1]: RP, Waters ACQUITY UPLC BEH C18, 100 × 2.1 mm, 1.7 µm, 0.2 mL/min, estimated dead time 1.1 min; A: water + 0.1% formic acid, pH 3; B: methanol + 0.1% formic acid, pH 3; gradient (min/%B) 0/5 5/5 25/100 30/100 30.1/5 35/5.
The nature of series [2]: RP, Waters ACQUITY UPLC BEH C18, 100 × 2.1 mm, 1.7 µm, 0.1 mL/min, estimated dead time 2.2 min; A: water + 0.1% formic acid, pH 3; B: methanol + 0.1% formic acid, pH 3; gradient (min/%B) 0/5 5/5 25/95 25.1/100 35/100 35.1/5 45/5.
Series [3] can be described thus: RP, Waters CORTECS T3, 100 × 2.1 mm, 2.7 µm, 0.3 mL/min, estimated dead time 0.73 min; A: water + 0.1% formic acid, pH 3; B: methanol + 0.1% formic acid, pH 3; gradient (min/%B) 0/0 1/0 6/5 30/100 35/100 35.1/0 40/0.
The nature of series [4]: RP, Waters CORTECS T3, 100 × 2.1 mm, 2.7 µm, 0.2 mL/min, estimated dead time 1.1 min; A: water + 0.1% formic acid, pH 3; B: methanol + 0.1% formic acid, pH 3; gradient (min/%B) 0/0 1/0 6/5 30/100 35/100 35.1/0 40/0.
A short description of series [5]: RP, Waters CORTECS T3, 100 × 2.1 mm, 2.7 µm, 0.3 mL/min, estimated dead time 0.73 min; A: water + 0.1% formic acid, pH 3; B: methanol + 0.1% formic acid, pH 3; gradient (min/%B) 0/0 5/0 25/100 30/100 30.1/0 35/0.
Series [6] can be described thus: RP, Waters CORTECS T3, 100 × 2.1 mm, 2.7 µm, 0.25 mL/min, estimated dead time 0.88 min; A: water + 0.1% formic acid, pH 3; B: methanol + 0.1% formic acid, pH 3; gradient (min/%B) 0/5 5/5 25/95 25.1/100 35/100 35.1/5 45/5.
A short description of series [7]: RP, Waters CORTECS T3, 100 × 2.1 mm, 2.7 µm, 0.2 mL/min, estimated dead time 1.1 min; A: water + 0.1% formic acid, pH 3; B: methanol + 0.1% formic acid, pH 3; gradient (min/%B) 0/5 5/5 25/95 25.1/100 35/100 35.1/5 45/5.
The nature of series [8]: RP, Waters CORTECS T3, 100 × 2.1 mm, 2.7 µm, 0.15 mL/min, estimated dead time 1.5 min; A: water + 0.1% formic acid, pH 3; B: methanol + 0.1% formic acid, pH 3; gradient (min/%B) 0/5 5/5 25/95 25.1/100 35/100 35.1/5 45/5.
Series [9] is described as follows: HILIC, Waters XBridge BEH Amide, 100 × 2.1 mm, 2.5 µm, 0.5 mL/min, estimated dead time 0.44 min; A: water + 0.1% acetic acid + 10 mM ammonium acetate, pH 4; B: 5% water + 95% acetonitrile + 0.1% acetic acid + 10 mM ammonium acetate, pH 4; gradient (min/%B) 0/95 5/95 20/57 25/57 30/95 40/95.
Series [10] can be described thus: RP, Waters ACQUITY UPLC BEH C18, 100 × 2.1 mm, 1.7 µm, 0.2 mL/min, estimated dead time 1.1 min; A: water + 0.025% formic acid + 20 mM ammonium acetate + 0.055% ammonium hydroxide, pH 7; B: methanol; gradient (min/%B) 0/5 5/5 25/100 30/100 30.1/5 35/5.
Series [11] is described as follows: RP, Waters CORTECS T3, 100 × 2.1 mm, 2.7 µm, 0.2 mL/min, estimated dead time 1.1 min; A: water + 0.1% formic acid, pH 3; B: methanol + 0.1% formic acid, pH 3; gradient (min/%B) 0/0 1/0 6/5 30/100 35/100 35.1/0 40/0. The source holds these as a separate data set.
A short description of series [12]: RP, Waters CORTECS T3, 100 × 2.1 mm, 2.7 µm, 0.3 mL/min, estimated dead time 0.73 min; A: water + 0.1% formic acid, pH 3; B: methanol + 0.1% formic acid, pH 3; gradient (min/%B) 0/5 5/5 25/100 30/100 30.1/5 35/5.
Series [13] is described as follows: RP, Waters CORTECS T3, 100 × 2.1 mm, 2.7 µm, 0.3 mL/min, estimated dead time 0.73 min; A: water + 0.1% formic acid, pH 3; B: methanol + 0.1% formic acid, pH 3; gradient (min/%B) 0/0 5/0 25/100 30/100 30.1/0 35/0. This is another data set of the same source.
A short description of series [14]: RP, Waters CORTECS T3, 100 × 2.1 mm, 2.7 µm, 0.3 mL/min, estimated dead time 0.73 min; A: water + 0.1% formic acid, pH 3; B: methanol + 0.1% formic acid, pH 3; gradient (min/%B) 0/0 1/0 6/5 30/100 35/100 35.1/0 40/0. The source holds these as a separate data set.
Series [15] in a line: RP, Waters CORTECS T3, 100 × 2.1 mm, 2.7 µm, 0.25 mL/min, estimated dead time 0.88 min; A: water + 0.1% formic acid, pH 3; B: methanol + 0.1% formic acid, pH 3; gradient (min/%B) 0/0 1/0 6/5 30/100 35/100 35.1/0 40/0.
Series [16] can be described thus: RP, Waters ACQUITY UPLC BEH C18, 100 × 2.1 mm, 1.7 µm, 0.1 mL/min, estimated dead time 2.2 min; A: water + 0.1% formic acid, pH 3; B: methanol + 0.1% formic acid, pH 3; gradient (min/%B) 0/5 5/5 25/100 30/100 30.1/5 35/5.
A short description of series [17]: RP, Waters CORTECS T3, 100 × 2.1 mm, 2.7 µm, 0.15 mL/min, estimated dead time 1.5 min; A: water + 0.1% formic acid, pH 3; B: methanol + 0.1% formic acid, pH 3; gradient (min/%B) 0/0 1/0 6/5 30/100 35/100 35.1/0 40/0.
Series [18] can be described thus: RP, Waters CORTECS T3, 100 × 2.1 mm, 2.7 µm, 0.3 mL/min, estimated dead time 0.73 min; A: water + 0.1% formic acid, pH 3; B: methanol + 0.1% formic acid, pH 3; gradient (min/%B) 0/5 5/5 25/95 25.1/100 35/100 35.1/5 45/5.
Series [19] is described as follows: HILIC, Merck SeQuant ZIC-HILIC, 150 × 2.1 mm, 5 µm, 0.75 mL/min, estimated dead time 0.44 min; A: water + 0.1% acetic acid + 10 mM ammonium acetate, pH 4; B: 5% water + 95% acetonitrile + 0.1% acetic acid + 10 mM ammonium acetate, pH 4; gradient (min/%B) 0/95 5/95 20/57 25/57 30/95 40/95.
A short description of series [20]: HILIC, Merck SeQuant ZIC-HILIC, 150 × 2.1 mm, 5 µm, 0.75 mL/min, estimated dead time 0.44 min; A: water + 10 mM ammonium formate, pH 6; B: 5% water + 95% acetonitrile + 10 mM ammonium formate, pH 6; gradient (min/%B) 0/95 5/95 20/57 25/57 30/95 40/95.
Series [21] can be described thus: RP, Waters CORTECS T3, 100 × 2.1 mm, 2.7 µm, 0.1 mL/min, estimated dead time 2.2 min; A: water + 0.1% formic acid, pH 3; B: methanol + 0.1% formic acid, pH 3; gradient (min/%B) 0/5 5/5 25/95 25.1/100 35/100 35.1/5 45/5.
A short description of series [22]: RP, Waters CORTECS T3, 100 × 2.1 mm, 2.7 µm, 0.1 mL/min, estimated dead time 2.2 min; A: water + 0.1% formic acid, pH 3; B: methanol + 0.1% formic acid, pH 3; gradient (min/%B) 0/0 1/0 6/5 30/100 35/100 35.1/0 40/0.

For the molecule `CSCCC(NC(C)=O)C(=O)O` (racemic) [N-ACETYL-DL-METHIONINE], the LC retention time in series [1] was 9.48 min; in [2], 13.3 min; in [3], 8.96 min; in [4], 10.6 min; in series [5], 9.23 min; in [6], 7.94 min. The LC retention time in [7] is 14.3 min; in series [8] it was 10.4 min; in series [9], 8.06 min; in [10] it was 2.97 min.
On to `N[C@@H](Cc1ccc(O)c(O)c1)C(=O)O` [3,4-DIHYDROXY-L-PHENYLALANINE], for which the LC retention time in [1] was 1.38 min; in series [2] it was 2.7 min; in [11], 1.38 min; in series [4], 1.42 min; in [7] it was 2.75 min; in series [8], 1.78 min. For the same molecule, the LC retention time is 0.93 min in series [12]; 0.93 min in [13]; 0.92 min in series [14]; 1.13 min in series [15]; 2.74 min in series [16]; 1.87 min in [17]. Also, the LC retention time in series [18] was 0.9 min.
With `CC(O)(CC(=O)O)C(=O)O` (stereo unspecified) [CITRAMALATE], the LC retention time in series [1] is 2.7 min; in series [2] it was 5.3 min; in series [3], 2.32 min; in [4], 3.28 min; in series [5], 2.32 min; in [6], 1.99 min. The LC retention time was 6.38 min in series [7], 3.28 min in [8], 12.2 min in series [19] and 12.8 min in series [20].
In the case of `COc1cc(C=CC(=O)O)ccc1O` [FERULATE], the LC retention time in series [1] is 14.3 min; in series [2] it was 17.2 min; in series [4] it was 15.6 min; in [7], 19.1 min; in series [8] it was 15.1 min; in [19] it was 3.23 min. Besides, the LC retention time in [12] was 12.3 min; in series [14] it was 14.1 min; in series [20], 2.09 min; in series [9], 2.26 min; in [15], 14.8 min; in [17] it was 16.9 min. In addition, the LC retention time in series [21] was 17.2 min; in [10], 1.78 min.
With `Nc1nc2ncc(CNc3ccc(C(=O)NC(CCC(=O)O)C(=O)O)cc3)nc2c(=O)[nH]1` (stereo unspecified) [FOLIC ACID], the LC retention time was 11.7 min in series [22]; 11.2 min in series [1]; 13.2 min in series [11]; 12.2 min in [3]; 13.2 min in [4]; 11.4 min in series [5]. Also, the LC retention time in series [6] is 11.1 min; in series [7], 15.9 min; in series [8], 12.6 min; in series [19], 14.4 min; in [12], 10.5 min; in series [13] it was 11.3 min. Also, the LC retention time in [14] is 12.2 min; in [20] it was 14.9 min; in series [15], 12.6 min; in series [16], 13.8 min; in series [10] it was 1.36 min; in [18] it was 10.7 min.
For the molecule `CC(=O)N[C@@H](CC(=O)O)C(=O)O` [N-ACETYL-L-ASPARTIC ACID], the LC retention time in series [1] was 1.84 min; in [3], 0.96 min; in [4], 1.42 min; in [5], 0.97 min; in [6], 1.13 min; in series [7] it was 2.78 min. The LC retention time in series [8] is 1.83 min; in series [19] it was 13.5 min; in series [20], 14 min; in series [9], 13.5 min; in series [10], 1.36 min.

Source of the values: the RepoRT retention time repository (doi:10.1016/j.jchromb.2020.122105).
